Test results taken from ChEMBL document CHEMBL5154681, “Small Amphiphilic Peptides: Activity Against a Broad Range of Drug-Resistant Bacteria and Structural Insight into Membranolytic Properties” (J Med Chem, 2022).
≈ marks a conversion by molar mass, not a printed value. Calls of active or inactive are those of the source. No cut-off for these calls is given here. Square brackets hold non-standard residues; d marks the D form. Peptide text beside a SMILES is read from it. Dip = N[C@H](C(=O)O)C(c1ccccc1)c1ccccc1; 2Nal = N[C@@H](Cc1ccc2ccccc2c1)C(=O)O

Key:
Staphylococcus aureus [1] = test: Antibacterial activity against methicillin resistant Staphylococcus aureus ATCC BAA-1556 after 24 hrs in presence of fetal bovine serum by microtiter plate method; assay type: functional
Staphylococcus aureus [2] = test: Antibacterial activity against methicillin resistant Staphylococcus aureus ATCC BAA-1556 after 24 hrs in presence of 2 mM of CaCl2 by microtiter plate method; assay type: functional
Staphylococcus aureus [3] = test: Antibacterial activity against methicillin resistant Staphylococcus aureus ATCC BAA-1556 incubated for 24 hrs by microtiter plate method; assay type: functional; settings: Staphylococcus aureus, ATCC BAA-1556, 24 h, read-out: MIC
Bacillus subtilis = test: Antibacterial activity against Bacillus subtilis ATCC 6633 incubated for 24 hrs by microtiter plate method; assay type: functional
Enterococcus faecalis [4] = test: Antibacterial activity against vancomycin-resistant Enterococcus faecalis ATCC 51575 incubated for 24 hrs by microtiter plate method; assay type: functional
Escherichia coli [5] = test: Bactericidal activity against Escherichia coli ATCC BAA-2452 assessed as reduction of bacterial growth at 4 times MIC by counting formed colonies; assay type: functional, organism-based; settings: time <= 4.0 hrs, TDE = time-dependent effect
Escherichia coli [6] = test: Bactericidal activity against Escherichia coli ATCC BAA-2452 assessed as reduction of bacterial growth at MIC by counting formed colonies; assay type: functional, organism-based; settings: time <= 4.0 hrs, TDE = time-dependent effect
Staphylococcus aureus [7] = test: Antibacterial activity against methicillin resistant Staphylococcus aureus ATCC BAA-1556 incubated for 24 hrs; assay type: functional
Staphylococcus aureus [8] = test: Bactericidal activity against methicillin resistant Staphylococcus aureus ATCC BAA-1556 assessed as time required for complete reduction of bacterial growth at 4 times MIC by counting formed colonies; assay type: functional
Staphylococcus aureus [9] = test: Antibacterial activity against methicillin resistant Staphylococcus aureus ATCC BAA-1556 after 24 hrs in presence of 150 mM of NaCl by microtiter plate method; assay type: functional
Staphylococcus aureus [10] = test: Bactericidal activity against methicillin resistant Staphylococcus aureus ATCC BAA-1556 assessed as time required for complete reduction of bacterial growth at MIC by counting formed colonies; assay type: functional
Lipid bilayer [11] = test: Membrano-lytic effect in bacterial inner membrane mimic DOPC/DOPG (7:3) large unilamellar vesicles assessed as calcein leakage measured at 50 microg/ml, incubated for 100 mins by multimode microplate reader assay; assay type: cell membranes; settings: dose 50.0 µg/ml
Streptococcus pneumoniae [12] = test: Antibacterial activity against […] ATCC 49619 incubated for 24 hrs by microtiter plate method; assay type: functional
Enterococcus faecium [13] = test: Antibacterial activity against Enterococcus faecium ATCC 27270 incubated for 24 hrs by microtiter plate method; assay type: functional
Enterococcus faecium [14] = test: Antibacterial activity against vancomycin-resistant Enterococcus faecium ATCC 700221 incubated for 24 hrs by microtiter plate method; assay type: functional
Staphylococcus aureus [15] = test: Antibacterial activity against methicillin resistant Staphylococcus aureus ATCC BAA-1556 after 24 hrs in presence of 4.5 mM of KCl by microtiter plate method; assay type: functional
Enterococcus faecalis [16] = test: Antibacterial activity against Enterococcus faecalis ATCC 29212 incubated for 24 hrs by microtiter plate method; assay type: functional
Staphylococcus aureus [17] = test: Antibacterial activity against Staphylococcus aureus ATCC 29213 incubated for 24 hrs by microtiter plate method; assay type: functional; settings: Staphylococcus aureus, ATCC 29213, read-out: MIC
Lipid bilayer [18] = test: Membrano-lytic effect in mammalian membrane mimic DOPC/cholesterol (10:1) large unilamellar vesicles assessed as calcein leakage measured at 50 microg/ml measured upto 100 mins for every 10 mins by multimode microplate reader assay; assay type: cell membranes; settings: dose 50.0 µg/ml
Staphylococcus aureus [19] = test: Antibacterial activity against methicillin resistant Staphylococcus aureus ATCC BAA-1556 after 24 hrs in presence of 6 mM of NH4Cl by microtiter plate method; assay type: functional
Bacillus cereus = test: Antibacterial activity against Bacillus cereus ATCC 13061 incubated for 24 hrs by microtiter plate method; assay type: functional
Staphylococcus aureus [20] = test: Antibacterial activity against methicillin resistant Staphylococcus aureus ATCC BAA-1556 after 24 hrs in presence of 1 mM of by microtiter plate method; assay type: functional
Lipid bilayer [21] = test: Membrano-lytic effect in bacterial inner membrane mimic DOPC/DOPG (7:3) large unilamellar vesicles assessed as calcein leakage measured upto 100 mins for every 10 mins by multimode microplate reader assay; assay type: cell membranes; settings: dose 5-50 µg/ml, DDE = dose-dependent effect
Staphylococcus aureus [22] = test: Bactericidal activity against methicillin resistant Staphylococcus aureus ATCC BAA-1556 assessed as reduction of bacterial growth at 4 times MIC by counting formed colonies; assay type: functional, organism-based; settings: time <= 4.0 hrs, TDE = time-dependent effect
Streptococcus pneumoniae [23] = test: Antibacterial activity against multidrug resistant […] ATCC 700677 incubated for 24 hrs by microtiter plate method; assay type: functional
Staphylococcus aureus [24] = test: Bactericidal activity against methicillin resistant Staphylococcus aureus ATCC BAA-1556 assessed as reduction of bacterial growth at MIC by counting formed colonies; assay type: functional, organism-based; settings: time <= 4.0 hrs, TDE = time-dependent effect
[25] = Proteolytic stability in human plasma at 100 uM incubated for 24 hrs by Q-TOF LC/MS analysis relative to control; assay type: ADME, cell-free; settings: read-out: Stability
[26] = Cytotoxicity against HEK293 assessed as cell viability at 250 ug/ml incubated for 24 hrs by microplate spectrophotometer analysis method relative to control; assay type: toxicity, cell-based; settings: human, HEK293 cells, at 250 µg/mL, read-out: Activity
MRC5 [27] = test: Cytotoxicity against human MRC-5 assessed as cell viability at 250 ug/ml incubated for 24 hrs by microplate spectrophotometer analysis method; assay type: toxicity, cell-based; settings: mrc5, 24 h, dose 250 µg/ml
Cell membrane [28] = test: Membrano-lytic effect in cytoplasmic membrane of Escherichia coli ATCC BAA-2452 assessed as disruption by measuring propidium iodide fluorescence incubated for 1 hr by FACscan flow cytometer analysis; settings: DDE = dose-dependent effect
[29] = Proteolytic stability in human plasma at 100 uM incubated for 30 mins by Q-TOF LC/MS analysis relative to control; assay type: ADME, cell-free; settings: read-out: Stability
Cell membrane [30] = test: Membrano-lytic effect in cytoplasmic membrane of methicillin resistant Staphylococcus aureus ATCC BAA-1556 assessed as disruption by measuring propidium iodide fluorescence at MIC incubated for 1 hr by FACscan flow cytometer analysis
Cell membrane [31] = test: Membrano-lytic effect in cytoplasmic membrane of methicillin resistant Staphylococcus aureus ATCC BAA-1556 assessed as disruption by measuring propidium iodide fluorescence incubated for 1 hr by FACscan flow cytometer analysis; settings: DDE = dose-dependent effect
Escherichia coli [32] = test: Bactericidal activity against Escherichia coli ATCC BAA-2452 assessed as time required for complete reduction of bacterial growth at MIC by counting formed colonies; assay type: functional
HepaRG [33] = test: Cytotoxicity against human HPRGC10 assessed as cell viability at 250 ug/ml incubated for 24 hrs by microplate spectrophotometer analysis method relative to control; assay type: functional; settings: read-out: Activity
Escherichia coli [34] = test: Bactericidal activity against Escherichia coli ATCC BAA-2452 assessed as time required for complete reduction of bacterial growth at 4 times MIC by counting formed colonies; assay type: functional
[35] = Hemolytic activity in human RBC assessed as hemolysis incubated for 2 hrs by spectrophotometer analysis; assay type: toxicity, cell-based, Erythrocyte; settings: human red blood cells (erythrocytes)
Lipid bilayer [36] = test: Induction of membrane disruption in bacterial inner membrane mimic DOPC/DOPG (7:3) large unilamellar vesicles assessed as decrease in particle size of liposome at 1:1 compound to lipid ratio measured after 24 hrs by dynamic light scattering analysis; assay type: cell membranes
Pseudomonas aeruginosa = test: Antibacterial activity against Pseudomonas aeruginosa ATCC 27883 incubated for 24 hrs by microtiter plate method; assay type: functional; settings: Pseudomonas aeruginosa, ATCC 27883, 24 h, read-out: MIC
MRC5 [37] = test: Cytotoxicity against human MRC-5 assessed as cell viability measured after 24 hrs by microplate spectrophotometer analysis; assay type: toxicity, cell-based; settings: mrc5, 24 h, DDE = dose-dependent effect, dose < 250 µg/ml
HepaRG [38] = test: Cytotoxicity against human HPRGC10 assessed as cell viability measured after 24 hrs by microplate spectrophotometer analysis; assay type: functional, cell-based; settings: dose <= 250.0 µg/ml, DDE = dose-dependent effect
Escherichia coli [39] = test: Antibacterial activity against Escherichia coli ATCC 25922 incubated for 24 hrs by microtiter plate method; assay type: functional; settings: Escherichia coli, ATCC 25922, 24 h, read-out: MIC
HEK293 = test: Cytotoxicity against HEK293 assessed as cell viability measured after 24 hrs by microplate spectrophotometer analysis; assay type: toxicity, cell-based; settings: human, hek293, 24 h, DDE = dose-dependent effect, dose < 250 µg/ml

Work on CCCCCCCCCC(=O)N[C@@H](Cc1c[nH]c2ccccc12)C(=O)N[C@H](CC(N)=O)C(=O)N[C@@H](CC(=O)O)C(=O)N[C@@H]1C(=O)NCC(=O)N[C@@H](CCCN)C(=O)N[C@@H](CC(=O)O)C(=O)N[C@H](C)C(=O)N[C@@H](CC(=O)O)C(=O)NCC(=O)N[C@H](CO)C(=O)N[C@@H]([C@H](C)CC(=O)O)C(=O)N[C@@H](CC(=O)c2ccccc2N)C(=O)O[C@@H]1C yielded an MIC (Staphylococcus aureus [1]) of 3.1 µg/mL, an MIC (Staphylococcus aureus [2]) of 3.1 µg/mL and an MIC (Staphylococcus aureus [3]) of 1.5 µg/mL (≈ 0.926 µM). For the same molecule, the MIC (Bacillus subtilis) was 0.7 µg/mL (≈ 0.432 µM), the MIC (Enterococcus faecalis [4]) was 12.5 µg/mL (≈ 7.71 µM) and the Activity (Escherichia coli [5]) was “Tde”. For the same molecule, the Activity (Escherichia coli [6]) was “Tde”, the MBC (Staphylococcus aureus [7]) was 6.2 µg/mL (≈ 3.83 µM) and the Activity (Staphylococcus aureus [8]) was “Active”. The MIC (Staphylococcus aureus [9]) was 0.7 µg/mL, the Activity (Staphylococcus aureus [10]) was “Active” and the Activity (Lipid bilayer [11]) was 27%. For the same molecule, the MIC (Streptococcus pneumoniae [12]) was 12.5 µg/mL (≈ 7.71 µM), the MIC (Enterococcus faecium [13]) was 1.5 µg/mL (≈ 0.926 µM) and the MIC (Enterococcus faecium [14]) was 6.25 µg/mL (≈ 3.86 µM). For the same molecule, the MIC (Staphylococcus aureus [15]) was 1.5 µg/mL, the MIC (Enterococcus faecalis [16]) was 6.25 µg/mL (≈ 3.86 µM) and the MIC (Staphylococcus aureus [17]) was 0.7 µg/mL (≈ 0.432 µM). The Activity (Lipid bilayer [18]) was 5%, the MIC (Staphylococcus aureus [19]) was 1.5 µg/mL and the MIC (Bacillus cereus) was 1.5 µg/mL (≈ 0.926 µM). The MIC (Staphylococcus aureus [20]) was 3.1 µg/mL, the Activity (Lipid bilayer [21]) was “Dde” and the Activity (Staphylococcus aureus [22]) was “Tde”. For the same molecule, the MIC (Streptococcus pneumoniae [23]) was 12.5 µg/mL (≈ 7.71 µM) and the Activity (Staphylococcus aureus [24]) was “Tde”.

Molecule N=C(N)NCCC[C@H](NC(=O)[C@H](CCCNC(=N)N)NC(=O)[C@H](CCCNC(=N)N)NC(=O)[C@@H](N)CCCNC(=N)N)C(=O)N[C@@H](Cc1ccc2ccccc2c1)C(=O)N[C@@H](Cc1ccc2ccccc2c1)C(=O)N[C@@H](Cc1ccc2ccccc2c1)C(=O)O (H-RRRR[2Nal][2Nal][2Nal]-OH) has an MIC (Staphylococcus aureus [3]) of 6.2 µg/mL (≈ 5.02 µM), a remaining at 24 h, 100 µM [25] of 32% and a viability at 24 h, 250 ug/ml [26] of 69%. For the same molecule, the Activity (MRC5 [27]) was “Non-Toxic”, the Activity (Cell membrane [28]) was “Dde” and the remaining at 0.5 h, 100 µM [29] was 62%. It also gave a Time (Staphylococcus aureus [8]) of 2 h, a Time (Staphylococcus aureus [10]) of 3 h and an Activity (Cell membrane [30]) of 35%. For the same molecule, the Activity (Cell membrane [31]) was “Dde”, the Time (Escherichia coli [32]) was 4 h and the viability at 250 µg/mL (HepaRG [33]) was 47%. It also gave a Time (Escherichia coli [34]) of 2.5 h, an HC50 at 2 h [35] of 130 µg/mL and an MIC (Staphylococcus aureus [17]) of 6.2 µg/mL (≈ 5.02 µM). The Activity (Lipid bilayer [18]) was 6%, the Activity (Lipid bilayer [36]) was “Active” and the MIC (Pseudomonas aeruginosa) was 25 µg/mL (≈ 20.3 µM). The Activity (Lipid bilayer [21]) was “Dde”.

In the case of N=C(N)NCCC[C@H](NC(=O)[C@H](CCCNC(=N)N)NC(=O)[C@@H](N)CCCNC(=N)N)C(=O)N[C@@H](CCCNC(=N)N)C(=O)N[C@H](C(=O)N[C@H](C(=O)N[C@H](C(=O)O)C(c1ccccc1)c1ccccc1)C(c1ccccc1)c1ccccc1)C(c1ccccc1)c1ccccc1 (H-RRRR[Dip][Dip][Dip]-OH), the MIC (Staphylococcus aureus [3]) is reported as 6.2 µg/mL (≈ 4.72 µM), the remaining at 24 h, 100 µM [25] is reported as 21% and the Activity (MRC5 [37]) is reported as “Dde”. For the same molecule, the Activity (Cell membrane [28]) was “Dde”, the remaining at 0.5 h, 100 µM [29] was 69% and the Time (Staphylococcus aureus [8]) was 2 h. The Time (Staphylococcus aureus [10]) was 3 h, the Activity (Cell membrane [30]) was 35% and the Activity (HepaRG [38]) was “Dde”. For the same molecule, the Activity (Cell membrane [31]) was “Dde”, the Time (Escherichia coli [32]) was 4 h and the Time (Escherichia coli [34]) was 2.5 h. It also gave an HC50 at 2 h [35] of 145 µg/mL, an MIC (Escherichia coli [39]) of 12.5 µg/mL (≈ 9.52 µM) and an MIC (Staphylococcus aureus [17]) of 6.2 µg/mL (≈ 4.72 µM). For the same molecule, the Activity (Lipid bilayer [18]) was 8%, the Activity (Lipid bilayer [36]) was “Active” and the Activity (HEK293) was “Dde”. The MIC (Pseudomonas aeruginosa) was 12.5 µg/mL (≈ 9.52 µM) and the Activity (Lipid bilayer [21]) was “Dde”.
